Results taken from article PMC4700930 (Nature, 2015).
Like-named read-outs stand apart in the source and are kept apart here. Numbered stars: 1 amine (or outer) side, 2 acyl side, 3 side chain; on linkers, the order of the positions; unused ones are H or OH. Bridge positions count the residues as written; N and C are the ends. Square brackets hold non-standard residues; d marks the D form. Peptide text beside a SMILES is read from it. I, II: the chains in the order shown. Actinocin(9to1) = Cc1c2oc3c(C)ccc(C(=O)[*:1])c3nc-2c(C(=O)[*:2])c(N)c1=O; NMeV = CN[C@H](C(=O)O)C(C)C; Sar = CNCC(=O)O

Legend:
[1] = test system: GFP-transfected P. berghei ANKA strain; conditions: for Activity % / Survival days: oral single dose
P. berghei liver stages = assay: Plasmodium berghei luciferase liver stage assay
Rat pharmacokinetics = type: in vivo
[2] = Plasma protein binding, equilibrium dialysis; type: in vitro ADME, mouse, rat, human
[3] = test system: MRC5 (human foetal lung fibroblasts); assay: Cytotoxicity against mammalian cells, resazurin assay, MRC5; type: cell-based
P. falciparum = assay: Parasite Reduction Ratio
[4] = test system: P. falciparum clinical isolates; assay: Ex vivo P. falciparum field isolates assay; type: cell-based; conditions: Plasmodium falciparum
[5] = test system: DDD107498-resistant P. falciparum lines; assay: SYBR Green growth assay on DDD107498-selected resistant lines; type: cell-based; conditions: Plasmodium falciparum
Mouse pharmacokinetics = type: in vivo; conditions: Intravenous 1 mg/kg
[6] = test system: P. vivax clinical isolates; assay: Ex vivo P. vivax field isolates assay; type: cell-based, Plasmodium vivax; conditions: read-out: median EC50, P. vivax clinical isolates, isolates from Papua (Indonesia)
P. falciparum NF54 = assay: Stage specificity studies in P. falciparum, synchronised cultures; type: cell-based, Plasmodium falciparum; conditions: 4nM for 24 h
P. berghei ookinetes = assay: P. berghei ookinete development assay; conditions: Plasmodium berghei, read-out: EC50, P. berghei ookinete
[7] = test system: DNA/RNA synthesis in P. falciparum 3D7; assay: Metabolic labelling with [3H]-hypoxanthine; type: cell-based, Plasmodium falciparum; conditions: sensitive and drug-resistant parasites
Dog pharmacokinetics = type: in vivo; conditions: Intravenous 1 mg/kg
[8] = test system: Plasmodium falciparum strain 3D7; assay: P. falciparum; type: cell-based
[9] = test system: liver schizont forms of P. yoelii; assay: P. yoelii liver stage assay; type: cell-based; conditions: Plasmodium yoelii, read-out: EC50, P. yoelii liver stage, liver schizont forms
P. berghei (PbGFPCON507) = type: in vivo, Plasmodium berghei
[10] = test system: luciferase-expressing P. berghei sporozoites; conditions: blood sampling from the mice
[11] = test system: P. falciparum strains K1, W2, 7G8, TM90C2A, D6, V1/S, NF54; assay: P. falciparum; type: cell-based, Plasmodium falciparum; conditions: compared with 3D7
[12] = test system: P. falciparum Pf3D7^0087/N9; type: in vivo, Plasmodium falciparum
[13] = 30 mg/kg, murine P. berghei model
[14] = male, Sprague Dawley, rat, blood, po, 5 mg/kg

Compound: CO[C@H]1O[C@@H]2O[C@@]3(C)CC[C@H]4[C@H](C)CC[C@@H]([C@H]1C)[C@@]24OO3 [Artemether]
- Activity % ([1]; 3 mg/kg): 59%
- Survival days ([1]; 3 mg/kg): 6 days
- Activity % ([1]; 10 mg/kg): 89%
- Survival days ([1]; 10 mg/kg): 6 days
- Survival days ([1]; 30 mg/kg): 7 days
- Activity % [1, 13]: 98%

Compound: C[C@H]1[C@H](OC(=O)CCC(=O)O)O[C@@H]2O[C@@]3(C)CC[C@H]4[C@H](C)CC[C@@H]1[C@@]24OO3 [Artesunate]
- Activity % ([1]; 3 mg/kg): <40%
- Survival days ([1]; 3 mg/kg): 6 days
- Activity % ([1]; 10 mg/kg): 75%
- Survival days ([1]; 10 mg/kg): 6 days
- Survival days ([1]; 30 mg/kg): 9 days

Compound: O=C1C(O)=C([C@H]2CC[C@H](c3ccc(Cl)cc3)CC2)C(=O)c2ccccc21 [Atovaquone, reference compound]
- EC50 (P. berghei liver stages; read-out: EC50, P. berghei liver stage, continuous treatment): 0.3 nM

Compound: CCN(CC)CCCC(C)Nc1ccnc2cc(Cl)ccc12 (stereo not drawn) [Chloroquine]
- Survival days ([1]; 3 mg/kg): 7 days
- Survival days ([1]; 10 mg/kg): 7 days
- Survival days ([1]; 30 mg/kg): 10 days

Compound: O=C(NCCN1CCCC1)c1cc(-c2ccc(CN3CCOCC3)cc2)nc2ccc(F)cc12 [DDD107498]
- CI (Rat pharmacokinetics; Rat, Intravenous 1 mg/kg): 18 mL/min/g
- bioavailability (Rat pharmacokinetics; [14]): 84%
- half-life (Rat pharmacokinetics; [14]): 18 h
- EC50 (P. berghei liver stages; read-out: EC50, P. berghei liver stage, liver schizont forms): ~1 nM
- protein binding [2]: low protein binding
- selectivity, human cells (MRC5 and Hep-G2) over parasite [3]: > 20,000 fold
- Activity % ([1]; 3 mg/kg): 99%
- Survival days ([1]; 3 mg/kg): 9 days
- Activity % ([1]; 10 mg/kg): 99.0%
- Survival days ([1]; 10 mg/kg): 14 days
- Survival days ([1]; 30 mg/kg): 23 days
- Activity % [1, 13]: 99.1%
- ED90 (90% reduction in parasitaemia) ([1]; single oral dose, mice infected with P. berghei): 0.57 mg/kg
- lag before killing (effects reversible following wash-out) (P. falciparum; 10 × EC50): 24 to 48 h
- concentration sufficient to produce maximal killing effects (P. falciparum; tested at 0.1, 0.3, 1, 3 and 10 × EC50): ≥ 1 × EC50
- EC50 ([4]; read-out: Range of EC50, P. falciparum clinical isolates): 0.29 to 3.29 nM
- EC50 ([4]; read-out: median EC50, P. falciparum clinical isolates): 0.81 nM
- IC50 ([5]; DD2, read-out: DDD107498 IC50, WT Dd2): 0.14 nM
- IC50 ([5]; read-out: DDD107498 IC50, high-level resistant line EF2-L775F): 660 nM
- IC50 ([5]; read-out: DDD107498 IC50, high-level resistant line EF2-Y186N): 3100 nM
- IC50 ([5]; read-out: DDD107498 IC50, low-level resistant line EF2-E134D): 5.8 nM
- mutagenicity (Mutagenicity): non-mutagenic
- CI (Mouse pharmacokinetics): 12 mL/min/g
- EC50 [6]: 0.51 nM
- effect from the ring stage (P. falciparum NF54): formation of abnormal trophozoites
- reduction in parasites, from the schizont stage (P. falciparum NF54): 98%
- reduction in parasites, from the trophozoite stage (P. falciparum NF54): 50%
- EC50 (P. berghei ookinetes): 5 nM
- effect on DNA/RNA biosynthesis ([3H]-hypoxanthine incorporation) [7]: minimal effects
- CI (Dog pharmacokinetics): 30 mL/min/g
- EC99 against 3D7 parasites ([8]; P. falciparum 3D7, n=39): 5.9 nM
- EC50 ([8]; Plasmodium falciparum, 3D7, read-out: EC50 against 3D7 parasites): 1 nM
- EC90 ([8]; Plasmodium falciparum, 3D7, read-out: EC90 against 3D7 parasites): 2.4 nM
- EC50 [9]: ~1 nM
- TB effect- sporozoite intensity (P. berghei (PbGFPCON507); 3 mg/kg oral): 93.8%
- TB effect- sporozoite prevalence (P. berghei (PbGFPCON507); 3 mg/kg oral): 88.6%
- reduction in infected mosquitoes (TB effect- oocyst prevalence) (P. berghei (PbGFPCON507); 3 mg/kg oral, day 10): 90.7%
- reduction in oocysts per midgut (TB effect- oocyst intensity) (P. berghei (PbGFPCON507); 3 mg/kg oral, day 10): 98.8%
- Inhibition in infection of naïve mice (P. berghei (PbGFPCON507); 3 mg/kg oral, multiple mosquito biting rates): 89.5%
- Effect size (P. berghei (PbGFPCON507); chain binomial model, reduction of R0, 100% coverage): 90.5%
- MPC, chemoprotection [10]: 15 to 20 ng/mL
- activity against drug-resistant strains [11]: almost equally active
- minimum parasiticidal concentration (MPC) ([12]; asexual blood stage infections, blood of infected SCID mice): 10 to 13 ng/mL
- ED90 on day 7 after infection ([12]; dosed orally daily for 4 days, SCID mice, P. falciparum): 0.95 mg/kg per day

Compound: C[C@H]1[C@@H](O)O[C@@H]2O[C@@]3(C)CC[C@H]4[C@H](C)CC[C@@H]1[C@@]24OO3 [Dihydroartemsinin]
- Activity % ([1]; 3 mg/kg): 61%
- Survival days ([1]; 3 mg/kg): 7 days
- Activity % ([1]; 10 mg/kg): 97%
- Survival days ([1]; 10 mg/kg): 6 days
- Survival days ([1]; 30 mg/kg): 7 days
- Activity % [1, 13]: 99%

Compound: OC(c1cc(C(F)(F)F)nc2c(C(F)(F)F)cccc12)C1CCCCN1 (stereo not drawn) [Mefloquine]
- Activity % ([1]; 3 mg/kg): <40%
- Survival days ([1]; 3 mg/kg): 7 days
- Activity % ([1]; 10 mg/kg): 95%
- Survival days ([1]; 10 mg/kg): 16 days
- Survival days ([1]; 30 mg/kg): 22 days

Compound: Cc1c2oc3c(C)ccc(C(=O)N[C@@H]4C(=O)N[C@H](C(C)C)C(=O)N5CCC[C@H]5C(=O)N(C)CC(=O)N(C)[C@@H](C(C)C)C(=O)O[C@@H]4C)c3nc-2c(C(=O)N[C@@H]2C(=O)N[C@H](C(C)C)C(=O)N3CCC[C@H]3C(=O)N(C)CC(=O)N(C)[C@@H](C(C)C)C(=O)O[C@@H]2C)c(N)c1=O [actinomycin D] (I: T[dV]P[Sar][NMeV] / II: T[dV]P[Sar][NMeV]; ester I:1-I:C, II:1-II:C; linker I:N-II:N via Actinocin(9to1))
- effect on DNA/RNA biosynthesis ([3H]-hypoxanthine incorporation) [7]: significant dose-dependent reduction

Compound: C[C@@H]1C[C@@H]([C@H](O)CC2CC(=O)NC(=O)C2)C(=O)[C@@H](C)C1 [cycloheximide]
- effect on DNA/RNA biosynthesis ([3H]-hypoxanthine incorporation) [7]: minimal effects
